Target: ERα (estrogen receptor α) (Homo sapiens, UniProt P03372)
Experiment: competitive radioligand binding assay with tritiated […]β-estradiol on recombinant hERα
Set-up: gene ESR1; recombinant hERα

ERα (estrogen receptor α), sequence (P03372 whole entry): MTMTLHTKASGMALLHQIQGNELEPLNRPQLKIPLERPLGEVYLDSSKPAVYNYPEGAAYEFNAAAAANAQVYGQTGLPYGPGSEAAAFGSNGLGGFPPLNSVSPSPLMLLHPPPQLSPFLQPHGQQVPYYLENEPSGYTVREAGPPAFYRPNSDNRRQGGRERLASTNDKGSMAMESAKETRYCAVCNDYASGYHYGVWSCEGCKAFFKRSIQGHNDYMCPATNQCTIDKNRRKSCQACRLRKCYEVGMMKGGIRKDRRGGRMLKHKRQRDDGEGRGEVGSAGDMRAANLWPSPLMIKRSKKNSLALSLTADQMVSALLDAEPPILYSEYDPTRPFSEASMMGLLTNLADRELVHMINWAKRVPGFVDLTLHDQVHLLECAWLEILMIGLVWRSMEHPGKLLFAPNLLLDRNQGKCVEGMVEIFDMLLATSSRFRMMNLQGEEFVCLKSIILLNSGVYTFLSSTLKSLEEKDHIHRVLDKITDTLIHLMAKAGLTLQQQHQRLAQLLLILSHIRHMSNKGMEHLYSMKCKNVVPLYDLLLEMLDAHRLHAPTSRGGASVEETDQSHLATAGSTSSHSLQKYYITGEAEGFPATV

| SMILES | Ki [nM] |
| --- | --- |
| C[C@]12CC[C@@H]3c4ccc(O)cc4CC[C@H]3[C@@H]1CC[C@@]2(O)C#Cc1cc(CN(CC(=O)[O-])CC(=O)[O-])nc(CN(CC(=O)[O-])CC(=O)[O-])c1.[Gd+3].[Na+] [EPTA-Gd] | 970 ± 70 |
| CC/C(=C(\c1ccc(C#Cc2cc(CN(CC(=O)[O-])CC(=O)[O-])nc(CN(CC(=O)[O-])CC(=O)[O-])c2)cc1)c1ccc(OCCN(C)C)cc1)c1ccccc1.[Gd+3].[Na+] [TPTA-Gd] | 130 ± 6 |

From article PMC4846659, “Estrogen Receptor-Targeted Contrast Agents for Molecular Magnetic Resonance Imaging of Breast Cancer Hormonal Status” (Frontiers in Oncology, 2016)
